Measured values reported in patent publication EP3720857B1, “2-OXO-5H-CHROMENO[4,3-B]PYRIDINES FOR USE IN THE TREATMENT OF HEPATITIS B” (Galapagos NV, priority 2017, dated 2019).

System: hepatitis virus B (HBV) infection
Experiment: iCell hepatocytes assay, standard assay (HBc staining, HBe ELISA, HBs ELISA)
Format: cell-based
Conditions: for EC50: Hepatitis B virus, Hepatocyte
Procedure: The principle of the iCell hepatocyte 2.0 96 well assay is to evaluate the inhibitory effect of a test compound on hepatitis virus B (HBV) infection. In this assays the HBV core antigen (HBcAg) and/or extracellular antigen (HBeAg) and/or surface antigen (HBsAg) are used as a marker for HBV infection. Nuclei count may be used as an indication for compound toxicity.
In the standard assay set-up HBV infection and compound addition are performed on the same day, in the delayed assay the compounds are added three days after HBV infection. iCell hepatocytes 2.0 are human hepatocytes derived from induced pluripotent stem cells (iPSc) purchased from Cellular Dynamics international (CDI, R1027).
At day 0, iCell hepatocytes 2.0 (CDI, R1027) are thawed and seeded in collagen I coated 96well plates at 112 000c/well (100µL) in plating medium (RPMI supplemented with B27 supplement, 20 ng/mL recombinant human oncostatin M (OSM), 25µg/mL gentamicin, 0.1µM Dexamethasone and iCell medium supplement provided by CDI). Plates are incubated at 37°C, 5% CO2 and daily refreshed with plating medium for the following four days.
On day 5 and 6, plates are refreshed with 100µL maintenance medium (RPMI supplemented with B27 supplement, 25µg/mL gentamicin, 0.1µM Dexamethasone, and iCell medium supplement provided by CDI) and incubated at 37°C, 5% CO2 until the following day.
On day 7 (day of infection) the supernatant is removed from the assay plates and 25 µL of 1/250 diluted compound in maintenance medium and 25 µL of HBV mix (HBV virus, 8% PEG, 0% or 4% DMSO in maintenance medium) are added to the assay plates. Compounds series are either prepared manually as a 6 point serial dilution using 1/5 dilution steps in 100% DMSO or as an 8 point serial dilution using 1/3 dilution steps in 100% DMSO or as an 8 point serial dilution using ¼ dilution steps, normalized for 0.2% DMSO. The assay plates were incubated overnight at 37°C, 5% CO2.
On day 1 post infection (day 8) 50 µL of HBV/cpd mix is removed from the assay plates and refreshed with 100 µL of compound series diluted 1/500 in maintenance medium. The assay plates are incubated at 37°C, 5% CO2 and refreshed with compound series diluted 1/500 in maintenance medium every other day (at day 3 and day 5 post infection) or after three days of incubation (at day 4 post infection).
At day 7 post infection (day 14), 100µL of supernatant is harvested and frozen at -20°C. The cells were fixed with 50 µL of 3.7% formaldehyde and incubated for 30 min at room temperature. After fixation, cells are washed four times with phosphate buffer saline (PBS) with the plate washer (Select 405, microplate washer, Biotek) and subjected to HBc staining. The harvested supernatant is used for HBe and/or HBs ELISA.
The assay plates are blocked with blocking buffer (2% FBS, 3% BSA, 0.2% TritonX100 in PBS) for 1 h at room temperature.
After blocking, the assay plates are tapped manually and incubated with 50 µL diluted primary antibody (1/700 Rabbit-anti-HBc Ag, Dako, B0586 or 1/350 Rabbit-anti-HBc Ag, Invitrogen, PA516368) in blocking buffer and incubated for 90 min at room temperature.
After 4 washes of PBST (1XPBS + 0.05% Tween) with the plate washer, the assay plates are incubated with 100 µL of secondary antibody (Donkey-anti-rabbit Alexa 488, Lifetechnologies, A21206) 1/500 diluted in blocking buffer and incubated for 60 min at room temperature in the dark, then washed 4 times with PBST on the plate washer and incubated with 100µL of DAPI (Sigma D9542, stock 5mg/mL) 1/10000 diluted in PBS for 15-30 min at room temperature in the dark.
Finally, the assay plates are read out on a InCell Analyzer 2200 (GE Healthcare).
A white lumitrac 600 384 well plate iss coated with 40µL of capture antibody (monoclonal Mouse-anti-HBe Ag, Fitzgerald, 10-H10) diluted 1/2000 in coating buffer (0.1M sodium carbonate pH 9.5) and incubated overnight at 4°C. […]

**Q.** Which results are given for `COCCCOc1cc2c(cc1F)-c1c(cc(C(=O)O)c(=O)n1C1CC1)C(C(C)C)O2` (stereo not drawn) [Compound 1, 1-cyclopropyl-9-fluoro-5-isopropyl-8-(3-methoxypropoxy)-2-oxo-5H-chromeno[4,3-b]pyridine-3-carboxylic acid]?
**A.** Standard assay HBs ELISA % inhibition: ++ (50-75%); EC50: 0.001 to 20 nM

**Q.** `COCCCOc1cc2c(cc1Cl)-c1c(cc(C(=O)O)c(=O)n1C1CC1)CO2` [Compound 6, 9-chloro-1-cyclopropyl-8-(3-methoxypropoxy) -2-oxo-5H-chromeno[4,3-b]pyridine-3-carboxylic acid] was tested. Which “Standard assay HBs ELISA % inhibition” value did it give?
**A.** +++ (75-100%)

**Q.** What about the EC50 of the same molecule?
**A.** 0.001 to 20 nM

**Q.** How did the “Standard assay HBs ELISA % inhibition” value turn out when `CCC1Oc2cc(OCCCOC)c(F)cc2-c2c1cc(C(=O)O)c(=O)n2C1CC1` (stereo not drawn) [Compound 16, 1-cyclopropyl-5-ethyl-9-fluoro-8-(3-methoxypropoxy) -2-oxo-5H-chromeno[4,3-b]pyridine-3-carboxylic acid] was run?
**A.** ++ (50-75%)

**Q.** What about the EC50 of the same molecule?
**A.** 22 to 50 nM

**Q.** With `COCCCOc1cc2c(cc1Cl)-c1c(cc(C(=O)O)c(=O)n1C1CC1)C(C(C)(C)COC)O2` (stereo not drawn) [Compound 19, 9-chloro-1-cyclopropyl-5-(2-methoxy-1,1-dimethyl-ethyl)-8-(3-methoxypropoxy) -2-oxo-5H-chromeno[4,3-b]pyridine-3-carboxylic acid] as the molecule, how does the “Standard assay HBs ELISA % inhibition” value read?
**A.** ++ (50-75%)

**Q.** What about the EC50 of the same molecule?
**A.** 22 to 50 nM

**Q.** How did the “Standard assay HBs ELISA % inhibition” value turn out when `COCCCOc1cc2c(cc1F)-c1c(cc(C(=O)O)c(=O)n1C1CC1)[C@H](C(C)C)O2` [Compound 44, (5S)-1-cyclopropyl-9-fluoro-5-isopropyl-8-(3-methoxypropoxy)-2-oxo-5H-chromeno[4,3-b]pyridine-3-carboxylic acid] was run?
**A.** ++ (50-75%)

**Q.** What about the EC50 of the same molecule?
**A.** 22 to 50 nM

**Q.** For `COCCCOc1cc2c(cc1Cl)-c1c(cc(C(=O)O)c(=O)n1C1CC1)[C@H](C1(C)COC1)O2` [Compound 46, (5R)-9-chloro-1-cyclopropyl-8-(3-methoxypropoxy)-5-(3-methyloxetan-3-yl)-2-oxo-5H-chromeno[4,3-b]pyridine-3-carboxylic acid], which “Standard assay HBs ELISA % inhibition” value is on record?
**A.** +++ (75-100%)

**Q.** What about the EC50 of the same molecule?
**A.** 0.001 to 20 nM
